Measured values from patent US20110028504A1, “Formulation of radioprotective alpha beta unsaturated aryl sulfones” (ONCONOVA THERAPEUTICS, INC., priority 2005, published 2011).
Marks after values point to notes of the source that are not given here.

Tests used:
[1] = pH stability testing at 75° C. (HPLC); assay type: physicochemical; settings: for Concentration of the ON.1210.Na determined by HPLC during the stability study: 75° C.
Procedure: (§1) The drug is dissolved in different pH buffers as outlined in Table 20. One hundred mL of each solution is prepared in a volumetric flask. Each solution is filtered through a 0.22 um filter. Approximately, four mL of the above solution is placed in 5 ml ampoules and sealed by a propane torch. The pH of the solution is determined at time zero and at each time interval. All the ampoules are placed in a 75° C. constant temperature oven. Any color changes or precipitation in the solution during the sample collection is visually observed. Concentration of the drug is determined at time zero and other time intervals by HPLC.
as §1, with “prepared in volumetric flask.” for “prepared in a volumetric flask.”, “filtered through 0.22 um” for “filtered through a 0.22 um”, “by HPLC. The pH and drug content of each sample are determined.” for “by HPLC.”
The data from the pH stability study is analyzed by plotting Log (conc.) versus time.
The rate constant for the degradation is determined using a linear regression at each individual pH.

[2] = Solid-state stability at 75° C.; assay type: physicochemical
Procedure: The stability of ON.1210.Na in the solid state is determined by exposing the drug at 75° C. over a prolonged time. The sample is crimped in a 10 mL injection vial and kept at the above temperature. The sample is collected after 15 days and one month and reconstituted with diluting solution and its concentration is determined by HPLC. Appearance of any additional peak in the chromatogram is also noted. A control sample is represented by ON.1210.Na not exposed to 75° C. and reconstituted to a known concentration with diluting solution.

With `O=C([O-])c1ccc(/C=C/S(=O)(=O)Cc2ccc(Cl)cc2)cc1.[Na+]` [ON.1210.Na, (E)-4-Carboxystyryl-4-chlorobenzylsulfone, Sodium Salt] the “Concentration of the ON.1210.Na determined by HPLC during the stability study” value (“Concentration of the ON.1210.Na” for short) ([1]; pH 6 buffer, 42 days, pH of the solution 5.94) was 16 µg/mL, the “Concentration of the ON.1210.Na” value ([1]; pH 6 buffer, 54 days, pH of the solution 5.90) was 14.7174 µg/mL and the “Kobs, first order rate constant for the degradation” value (“Kobs, first order rate constant” for short) ([1]; pH 7.4, 75° C.) was 0.0037 day⁻¹. The “Concentration of the ON.1210.Na” value ([1]; pH 7.4 buffer, 0 hours, pH of the solution 7.41) was 485.952 µg/mL, the “Concentration of the ON.1210.Na” value ([1]; pH 7.4 buffer, 1 day, pH of the solution 7.42) was 485.8206 µg/mL and the “Concentration of the ON.1210.Na” value ([1]; pH 7.4 buffer, 3 days, pH of the solution 7.52) was 481.4637 µg/mL. The “Concentration of the ON.1210.Na” value ([1]; pH 7.4 buffer, 5 days, pH of the solution 7.44) was 484.009 µg/mL, the “Concentration of the ON.1210.Na” value ([1]; pH 7.4 buffer, 10 days, pH of the solution 7.42) was 473.2525 µg/mL and the “Concentration of the ON.1210.Na” value ([1]; pH 7.4 buffer, 17 days, pH of the solution 7.41) was 466.5611 µg/mL. The “Concentration of the ON.1210.Na” value ([1]; pH 7.4 buffer, 28 days, pH of the solution 7.2) was 434.5598 µg/mL, the “Concentration of the ON.1210.Na” value ([1]; pH 7.4 buffer, 35 days, pH of the solution 7.34) was 428.5503 µg/mL and the “Concentration of the ON.1210.Na” value ([1]; pH 7.4 buffer, 42 days, pH of the solution 7.36) was 416.3353 µg/mL. The “Concentration of the ON.1210.Na” value ([1]; pH 7.4 buffer, 54 days, pH of the solution 7.31) was 403.267 µg/mL, the “Kobs, first order rate constant” value ([1]; pH 8.0, 75° C.) was 0.0064 day⁻¹ and the “Concentration of the ON.1210.Na” value ([1]; pH 8.0 buffer, 0 hours, pH of the solution 8.01) was 494.8540 µg/mL. The “Concentration of the ON.1210.Na” value ([1]; pH 8.0 buffer, 1 day, pH of the solution 8.08) was 493.8002 µg/mL, the “Concentration of the ON.1210.Na” value ([1]; pH 8.0 buffer, 3 days, pH of the solution 8.04) was 485.8134 µg/mL and the “Concentration of the ON.1210.Na” value ([1]; pH 8.0 buffer, 5 days, pH of the solution 7.98) was 486.042 µg/mL. For the same compound, the “Concentration of the ON.1210.Na” value ([1]; pH 8.0 buffer, 10 days, pH of the solution 7.98) was 462.5487 µg/mL, the “Concentration of the ON.1210.Na” value ([1]; pH 8.0 buffer, 17 days, pH of the solution 8.02) was 441.454 µg/mL and the “Concentration of the ON.1210.Na” value ([1]; pH 8.0 buffer, 28 days, pH of the solution 7.81) was 398.9563 µg/mL. The “Concentration of the ON.1210.Na” value ([1]; pH 8.0 buffer, 35 days, pH of the solution 7.33, new degradation product with retention time 4.52 min) was 249.7589** μg/mL, the “Concentration of the ON.1210.Na” value ([1]; pH 8.0 buffer, 42 days, pH of the solution 7.36) was 378.4188 µg/mL and the “Concentration of the ON.1210.Na” value ([1]; pH 8.0 buffer, 54 days, pH of the solution 7.9) was 353.5676 µg/mL. For the same compound, the “Kobs, first order rate constant” value ([1]; pH 9.0, 75° C.) was 0.0104 day⁻¹, the “Concentration of the ON.1210.Na” value ([1]; pH 9.0 buffer, 0 hours, pH of the solution 9.02) was 475.7458 µg/mL and the “Concentration of the ON.1210.Na” value ([1]; pH 9.0 buffer, 1 day, pH of the solution 9.1) was 463.3368 µg/mL. For the same compound, the “Concentration of the ON.1210.Na” value ([1]; pH 9.0 buffer, 3 days, pH of the solution 9.12) was 436.1314 µg/mL, the “Concentration of the ON.1210.Na” value ([1]; pH 9.0 buffer, 5 days, pH of the solution 8.72) was 422.51 µg/mL and the “Concentration of the ON.1210.Na” value ([1]; pH 9.0 buffer, 10 days, pH of the solution 8.74) was 379.1650 µg/mL. The “Concentration of the ON.1210.Na” value ([1]; pH 9.0 buffer, 17 days, pH of the solution 8.75) was 351.6448 µg/mL, the “Concentration of the ON.1210.Na” value ([1]; pH 9.0 buffer, 28 days, pH of the solution 8.53) was 304.3917 µg/mL and the “Concentration of the ON.1210.Na” value ([1]; pH 9.0 buffer, 35 days, pH of the solution 8.46, two new degradation products with retention time of 4.52 and 3.6 minutes) was 199.584*** μg/mL. For the same compound, the “Concentration of the ON.1210.Na” value ([1]; pH 9.0 buffer, 42 days, pH of the solution 8.45) was 300.1106 µg/mL, the “Concentration of the ON.1210.Na” value ([1]; pH 9.0 buffer, 54 days, pH of the solution 8.47) was 267.741 µg/mL and the “accelerated solid-state stability of the bulk drug substance” value [2] was “no evidence of degradation”.
